Tests used:
[1] = target: T1, HAQ isoform human STING (hSTING) (Homo sapiens, UniProt Q86WV6, G230A/H232R/R293Q/R71H); test: THP1 dual reporter assay (ISRE-inducible Lucia, NF-κB inducible SEAP); assay type: cell-based; details: THP1 cells naturally expressing HAQ hSTING, 20 h incubation, vs DMSO-treated sample; for ISRE (IRF) reporter activity, induction: QUANTI-luc
T1 construct: THP1 cells naturally expressing HAQ isoform human STING (hSTING); endogenous in cells; host or cells: THP1 cells stably transfected with ISRE-inducible Lucia and NF-κB inducible SEAP reporters
Protocol: (§1) THP1 cells naturally expressing HAQ isoform human STING (hSTING), stably transfected with an ISRE-inducible Lucia and NF-κB inducible SEAP were treated with various concentrations of Cmd 1 or DMSO control. After 20 h incubation, levels of Lucia and SEAP were measured using QUANTI-luc and QUANTI-Blue to measure and ISRE and NF-κB reporter activity respectively. Percent induction was calculated from fold change in activity compared to DMSO-treated sample.
as §1, with “sample. EC50 values were generated by curve fit in Xlfit.” for “sample.”
as §1, with “Cmd 2” for “Cmd 1”, “reporter activity, respectively, in Xlfit.” for “reporter activity respectively.”
as §1, with “Cmd 2” for “Cmd 1”, “reporter activity, respectively, in Xlfit.” for “reporter activity respectively.”, “sample. EC50 values were generated by curve fit.” for “sample.”

STING CTD = STING CTD (Homo sapiens, UniProt Q86WV6); test: Thermal shift assay with STING CTD; assay type: binding; details: 0.1 mg/mL STING CTD, compound 2 mM to 0.05 uM, SYPRO Orange, 25-80° C.
Protocol: Thermal shift assay was conducted with 0.1 mg/mL of STING CTD with various dilutions of compound 1 from 2 mM to 0.05 uM in 10 mM HEPES (pH 7.5), 140 mM NaCl and a 5 fold dilution of SYPRO Orange dye (Invitrogen). The fluorescence signal as a function of temperature was recorded using a Real Time PCR machine (Thermo Fisher). The temperature gradient was performed in the range of 25−80° C. with a ramp of 0.2° C. over the course of 60 min. Data were analyzed with the Thermal Shift Software (Thermo Fisher), DSF analysis, and the Derivative model was used to fit the fluorescence data to obtain the midpoint temperature for the thermal protein unfolding transition (Tm) using the curve-fitting software Prism.

mouse STING = target: T2, mouse STING (Mus musculus, UniProt Q3TBT3); test: RAW macrophage ISRE-inducible Lucia reporter assay; assay type: cell-based; details: mouse derived RAW macrophages, 20 h incubation, QUANTI-luc, vs DMSO-treated sample
T2 construct: Mouse derived RAW macrophages stably transfected with an ISRE-inducible Lucia; endogenous in cells; host or cells: Mouse derived RAW macrophages stably transfected with an ISRE-inducible Lucia reporter
T2 sequence (Q3TBT3 1-378): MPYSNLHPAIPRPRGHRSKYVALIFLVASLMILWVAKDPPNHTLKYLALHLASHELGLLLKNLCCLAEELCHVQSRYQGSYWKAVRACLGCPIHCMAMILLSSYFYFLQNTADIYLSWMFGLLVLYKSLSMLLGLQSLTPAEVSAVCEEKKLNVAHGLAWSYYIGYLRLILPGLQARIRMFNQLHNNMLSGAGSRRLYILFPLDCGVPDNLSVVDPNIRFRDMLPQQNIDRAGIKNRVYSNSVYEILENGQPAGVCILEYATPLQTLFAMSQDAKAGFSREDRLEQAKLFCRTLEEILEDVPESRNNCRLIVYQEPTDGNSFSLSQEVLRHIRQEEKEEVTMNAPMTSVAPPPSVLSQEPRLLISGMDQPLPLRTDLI
Protocol: (§2) Mouse derived RAW macrophages stably transfected with an ISRE-inducible Lucia were treated with various concentrations of compound 1 or DMSO control. After 20 h incubation, levels of Lucia were measured using QUANTI-luc to measure and ISRE reporter activity. Percent induction was calculated from fold change in activity compared to DMSO-treated sample.
as §2, with “sample. EC50 values were generated by curve fit in Xlfit.” for “sample.”
as §2, with “2” for “1”
Mouse derived RAW macrophages stably transfected with an ISRE-inducible Lucia were treated with various concentrations of compound 2 or DMSO control. After 20 h incubation, levels of Lucia were measured using QUANTI-luc to measure and ISRE reporter activity. […]

T1 sequence (Q86WV6 whole entry R71H/G230A/H232R/R293Q, canonical isoform): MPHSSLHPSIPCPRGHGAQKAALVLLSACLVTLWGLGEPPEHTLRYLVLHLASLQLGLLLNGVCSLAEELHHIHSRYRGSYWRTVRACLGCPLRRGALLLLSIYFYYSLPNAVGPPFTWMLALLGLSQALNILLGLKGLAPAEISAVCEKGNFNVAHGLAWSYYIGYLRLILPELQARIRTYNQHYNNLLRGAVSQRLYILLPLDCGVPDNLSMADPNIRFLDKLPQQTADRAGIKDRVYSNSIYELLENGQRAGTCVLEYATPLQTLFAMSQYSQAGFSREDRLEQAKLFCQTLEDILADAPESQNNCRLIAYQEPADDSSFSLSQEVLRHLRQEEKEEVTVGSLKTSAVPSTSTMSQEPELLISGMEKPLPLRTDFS
STING CTD, sequence (Q86WV6 135-379 limits assumed): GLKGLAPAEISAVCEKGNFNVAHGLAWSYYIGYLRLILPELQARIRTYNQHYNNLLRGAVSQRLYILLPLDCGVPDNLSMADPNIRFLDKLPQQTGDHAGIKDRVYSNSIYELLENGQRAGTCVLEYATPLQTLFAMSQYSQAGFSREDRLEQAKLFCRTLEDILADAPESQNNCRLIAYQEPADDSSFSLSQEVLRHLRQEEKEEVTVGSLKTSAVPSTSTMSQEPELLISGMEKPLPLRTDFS

SMILES: Nc1ncnc2c1ncn2[C@@H]1O[C@@H]2COP(=O)(S)O[C@@H]3[C@H](F)[C@@H](COP(=O)(O)O[C@@H]1[C@@H]2F)O[C@H]3n1ccc(=O)[nH]c1=O (stereo partly drawn) [compound 1]
- ISRE (IRF) reporter activity, induction [1]: activates natural allelic variant HAQ to induce IRF
- Binding to STING (thermal shift, Tm) (STING CTD): binds to STING with high affinity
- ISRE (IRF) reporter activity, induction (mouse STING): activates mouse STING to induce IRF in RAW macrophages

SMILES: CCCCCCCCCCOc1ccc(C(=O)Oc2ccc(CSP3(=O)OC[C@H]4O[C@@H](n5cnc6c(N)ncnc65)[C@H](OP(=O)(O)OC[C@H]5O[C@@H](n6ccc(=O)[nH]c6=O)[C@H](O3)[C@@H]5F)[C@@H]4F)cc2)cc1 (stereo partly drawn) [compound 2]
- NF-κB reporter activity, induction ([1]; QUANTI-Blue (SEAP)): activates natural allelic variant HAQ to induce IRF and NF-κB
- ISRE (IRF) reporter activity, induction [1]: activates natural allelic variant HAQ to induce IRF
- ISRE (IRF) reporter activity, induction (mouse STING): activates mouse STING to induce IRF in RAW macrophages
